We go through three compounds from patent publication US9110076B2, “Method for quantifying modified peptides” (HVIVO SERVICES LIMITED, priority 2009, dated 2015).

One experiment has as its system HEL. In words: Sensitivity of AML cell lines to drug treatment (MTS assay). The note with it: 72 h. The class given is cell-based. The protocol:
(§1) Sensitivity of AML cell lines to drug treatment. Eight cell lines (AML-193, CMK, CTS, HEL, Kasumi-1, KG-1, MV4-11 and P31/FUJ) were seeded in 96 well plates at 1×10^5 cell/ml in triplicate for each condition. After a recovery period of 2 h, cells were treated with increasing concentrations (1 nM, 10 nM, 100 nM, 1 μM and 10 μM) of FLT3 inhibitor, MEK I inhibitor, JAK I inhibitor, LY294002, PI-103 and IC87114. As controls, cells were both treated with the vehicle (DMSO) and left untreated. After 72 hours treatment, cell viability was assessed by MTS assay (CellTiter 96® AQueous One Solution Cell Proliferation assay, Promega Corporation, Madison, Wis., USA).
On the technique in general: Tetrazolium dyes change colour on reduction, which living cells bring about.

The subject of the next experiment is AML-193. The description is as above. It counts as cell-based. Particulars: 72 h. The protocol: as §1
The test system of the next experiment is NIH-3T3 fibroblasts. In words: TIQUAS quantification of phosphorylation sites in starved, serum-stimulated cells with or without wortmannin pre-incubation. The class given is cell-based, murine. The note with it: of 2,350 phosphorylated peptides quantified; WM treatment of cells prior to serum stimulation; 4 experiments. As for the experimental part: The novel quantitative techniques of the invention were used to quantify phosphorylation sites in NIH-3T3 fibroblasts, which were starved and then stimulated with serum with or without pre-incubation with the pan-PI3K inhibitor wortmannin (WM). These experiments were performed 4 times. […] Cells were treated as indicated, lysed with a urea-based buffer to obtain nuclear as well as cytosolic proteins and proteins digested. Resultant phosphorylated peptides were enriched by IMAC and TiO2 chromatography and quantified by LC-MS using a computer program developed by the inventors ([…]) (Cutillas and Vanhaesebroeck, Molecular & Cellular Proteomics 6, 1560-1573 (2007)). FIG. 2(B) gives a summary of the data obtained and a snapshot of the data sorted by probability.

A further experiment concerns P31/FUJ. The experiment can be described thus: Sensitivity of AML cell lines to drug treatment (MTS assay). It counts as cell-based. The note with it: 72 h. The protocol:
as §1

A further experiment deals with MV4-11. The experiment is described as above. It counts as cell-based. Particulars: 72 h. The protocol:
as §1

Turning to `CC(C)(C)c1nc2c3cc[nH]c(=O)c3c3cc(F)ccc3c2[nH]1` [JAK I], the “sensitivity of cell line to inhibitor (survival by MTS assay)” value is “resistant” in the experiment with HEL and “sensitive” in the experiment on AML-193.
Regarding `COC[C@H]1OC(=O)c2coc3c2[C@@]1(C)C1=C(C3=O)[C@@H]2CCC(=O)[C@@]2(C)C[C@H]1OC(C)=O` [WM, wortmannin], the “phosphorylated peptides significantly (p<0.05) affected by WM treatment” value in the experiment with NIH-3T3 fibroblasts is reported as 265.
For the compound `Oc1cccc(-c2nc(N3CCOCC3)c3oc4ncccc4c3n2)c1` [PI-103], the “sensitivity of cell line to inhibitor (survival by MTS assay)” value is “resistant” in the experiment with P31/FUJ and “sensitive” with MV4-11.
